Test results: patent publication US6794414B1, “Method and compositions for treating diseases mediated by transglutaminase activity” (Yeda Research and Development Co. Ltd., priority 1998, dated 2004)
“Also recorded” adds a separate entry of the source.

How the values were obtained:
transglutaminase (TGase) = assay: TGase assay on human brain extracts ([3H]putrescine incorporation into casein); type: biochemical; details: for TGase Activity + Casein + MDC / TGase Activity − Casein + MDC: 5 mM mono dansyl cadaverine, mean ± SEM, n = 2; for TGase Activity − Casein + MDC: no casein
Description: Each assay contained 80 μg of brain extract, 4 mg/ml N,N-dimethylated casein, 50 mM Tris (pH 8.0), 5 mM CaCl2, 5 mM dithiothreitol (DTT), and 0.37 mM putrescine (1:5, ^3 [H]putrescine:putrescine) in 80 μL. The reaction was incubated at 37° C. for 30 minutes. After it was washed in 500 μL of 10% trichloro acetic acid (TCA) and washed again in 100% ethanol, the reaction was resuspended in 220 μL of 0.1 M NaOH. The resuspended pellet was added to 10 ml of scintillation liquid. […] For lymphoid cells, 10^6 cells were suspended in 0.5 ml buffer for five minutes, then centrifuged at 1200×g for ten minutes.
Approximately 500 mg of brain tissue was homogenized in 2 ml of 10 mM Hepes (pH 7.4) containing 150 mM NaCl, 0.2 mg/ml leupeptin, 0.2 mg/ml aprotinin, 0.2 mg/ml pepstatin, and 0.5 mM phenylmethylsulfonyl fluoride (PMSF). The homogenate was centrifuged at 4° C. for ten minutes at 1000×g, and the supernatant was then centrifuged at 4° C. for ten minutes at 10,000×g to separate the cytoplasmic proteins. The remaining nuclear pellet was washed twice, for ten minutes each time, with the homogenization buffer at 4° C. at 1000×g, and then suspended in 1 ml of 10 mM Tris-Cl, 140 mM NaCl, 3 mM MgCl2, 0.5 mM PMSF, 0.1% sodium dodecyl sulfate (SDS), and 1% Nonylphenyl-polyethylene glycol (Nonidet P-40) (pH 7.4). The homogenate was spun at 4° C. for ten minutes at 8000×g. This procedure increased the level of beta-demn, a protein found more frequently in the cytoplasm than in the nucleus, enriching it 15.5-fold in the cytoplasm relative to the nucleus (Zhao et al, 1998).
This method for measuring brain transglutaminase was adapted from Folk and Cole (Folk et al, 1966). Casein serves as an excellent glutamine-containing protein substrate and […], while putrescine serves as the attacking nucleophile (Cooper et al, 1997). In the Huntington's Disease brain, in both the affected cortex andjin relatively unaffected areas like the cerebellum, which are affected in juvenile Huntington's Disease, transglutaminase activity was greater than in the corresponding areas of the control brain (HD cortex 14888±2864 cpm vs. normal cortex 6697±1410 cpm, mean ±1SEM, p<0.009 for HD cortex versus normal cortex; HD cerebellum 11221±2426 cpm vs. control cerebellum 2606±719 cpm, mean ±1SEM, p<0.001 for HD cerebellum versus control cerebellum.) Transglutaminase activity was also greater in extracts of nuclei from brains of Huntington's Disease patients than controls (HD brain cortical nuclear extract 6368±764 cpm vs. control brain cortical nuclear extract 2357±226 cpm, mean ±1SEM, Table 1).

[1] = tested on: mice with experimental autoimmune encephalomyelitis; assay: Experimental autoimmune encephalomyelitis (EAE) in mice; type: in vivo; details: for Paralysis / paralytic disease in EAE: paraparetic mice with EAE
Description: Paraparetic mice with experimental autoimmune encephalomyelitis were administered one dose of monodansyl cadaverine. […] Thus, diseases mediated in part by transglutaminase can be treated with transglutaminase inhibitors.
0.05 mM monodansyl cadaverine was injected intraperitoneally into one of two groups of mice. The injection was given on day 13 after induction of disease, marked in the FIG. by an arrow.
To obtain the data shown in FIG. 6, experimental autoimmune encephalitis (EAE) was induced in ten week old SJL female mice. EAE was induced by an injection of 4 mg of mouse spinal cord homogenate in 1 ml of CFA. The injections were given intradermally in three places (two places in the flanks and one in the neck). On the same day, day 1, and on day 2, an intraperitoneal injection of pertussis toxin was given. The mice were treated with different concentrations of mono dansyl cadaverine on day 10. One group was injected twice on days 7 and 10 with […] mono dansyl cadaverine.
The grading score for EAE is 0, normal; 1, mild paraparesis; 2, paraparesis; 3, severe paraparesis; 4, quadriparesis; 5, dead.

[2] = molecular target: T1, httQ41 (100 amino acids; elsewhere given as 110 amino acids), P42858
T1 chain: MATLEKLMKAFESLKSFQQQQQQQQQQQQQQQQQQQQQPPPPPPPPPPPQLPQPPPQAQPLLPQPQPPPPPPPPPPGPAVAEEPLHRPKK

[3] = molecular target: T2, httQ23 (310 amino acids), P42858
T2 chain: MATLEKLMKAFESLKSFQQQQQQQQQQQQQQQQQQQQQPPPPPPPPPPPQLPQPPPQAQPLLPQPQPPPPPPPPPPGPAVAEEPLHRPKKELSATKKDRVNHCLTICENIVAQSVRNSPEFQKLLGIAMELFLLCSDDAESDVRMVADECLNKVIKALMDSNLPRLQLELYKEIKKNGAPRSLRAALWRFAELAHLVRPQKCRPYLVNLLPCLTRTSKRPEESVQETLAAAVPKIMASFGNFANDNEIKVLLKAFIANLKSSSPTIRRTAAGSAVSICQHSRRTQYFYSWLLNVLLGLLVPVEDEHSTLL

[4] = molecular target: T3, httQ23 (90 amino acids), P42858
T3 chain: T1 chain

[5] = molecular target: T4, httQ41 (330 amino acids), P42858
T4 chain: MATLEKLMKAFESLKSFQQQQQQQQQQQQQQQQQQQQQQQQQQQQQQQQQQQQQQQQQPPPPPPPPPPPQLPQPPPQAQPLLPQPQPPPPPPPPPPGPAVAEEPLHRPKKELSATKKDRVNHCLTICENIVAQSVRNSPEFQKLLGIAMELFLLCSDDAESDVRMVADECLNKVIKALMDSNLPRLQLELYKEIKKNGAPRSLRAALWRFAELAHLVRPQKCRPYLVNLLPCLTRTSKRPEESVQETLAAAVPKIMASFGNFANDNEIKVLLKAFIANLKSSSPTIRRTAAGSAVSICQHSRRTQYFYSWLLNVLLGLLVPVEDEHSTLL

[6] = molecular target: T5, httQ67 (135 amino acids), P42858
T5 chain: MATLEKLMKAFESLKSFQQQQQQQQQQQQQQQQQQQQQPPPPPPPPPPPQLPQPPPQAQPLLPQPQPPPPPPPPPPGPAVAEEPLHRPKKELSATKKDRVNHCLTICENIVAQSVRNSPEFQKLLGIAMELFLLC

## CN(C)c1cccc2c(S(=O)(=O)NCCCCCN)cccc12 [monodansyl cadaverine]
Transglutaminase (TGase); Control Cerebellum extract
  TGase Activity + Casein + MDC: 83 ± 14 CPM
  TGase Activity − Casein + MDC: 117 ± 30 CPM
Transglutaminase (TGase); Control Cortex extract
  TGase Activity + Casein + MDC: 63 ± 10 CPM
  TGase Activity − Casein + MDC: 151 ± 39 CPM
Transglutaminase (TGase); HD Cerebellum extract
  TGase Activity + Casein + MDC: 186 ± 57 CPM
  TGase Activity − Casein + MDC: 58 ± 13 CPM
Transglutaminase (TGase); HD Cortex extract
  TGase Activity + Casein + MDC: 94 ± 18 CPM
  TGase Activity − Casein + MDC: 81 ± 17 CPM
Transglutaminase (TGase); cytosolic extract from HD and control brain, putrescine incorporation into casein
  Inhibition of enzymatic (transglutaminase) activity of brain extract: completely inhibited
[1]; 0.05 mM injected intraperitoneally on day 13 after induction, following the second day of injection
  Effect on EAE (FIG. 5), p compared to control: significant influence (p=0.03 compared to control)
[1]; FIG. 5 experiment, versus vehicle-injected controls
  Mononuclear cell infiltration in brains by hematoxilin-eosin staining: high levels of infiltration
[1]; mice treated in vivo
  Side effects: no untoward side effects
[1]; mice with EAE, histology
  Lymphocytic infiltration / accumulation of inflammatory lymphocytes in brain: prevented the accumulation of inflammatory lymphocytes in the brain; also recorded: reversed
[1]
  Paralysis / paralytic disease in EAE: reversed paralytic disease; also recorded: Ongoing paralysis was reversed
[1]; paraparetic mice with EAE treated in vivo
  Disease status after treatment: apparently free of disease; also recorded: free of disease after treatment
[1]; listed as monodensyl cadaverine
  Paralysis / paralytic disease in EAE: can reverse ongoing paralysis

B1: guinea pig liver TGase (Sigma) (protein)
chain: AEDLILERCDLQLEVNGRDHRTADLCRERLVLRRGQPFWLTLHFEGRGYEAGVDTLTFNAVTGPDPSEEAGTMARFSLSSAVEGGTWSASAVDQQDSTVSLLLSTPADAPIGLYRLSLEASTGYQGSSFVLGHFILLYNPRCPADAVYMDSDQERQEYVLTQQGFIYQGSAKFINGIPWNFGQFEDGILDICLMLLDTNPKFLKNAGQDCSRRSRPVYVGRVVSAMVNCNDDQGVLQGRWDNNYSDGVSPMSWIGSVDILRRWKDYGCQRVKYGQCWVFAAVACTVLRCLGIPTRVVTNFNSAHDQNSNLLIEYFRNESGEIEGNKSEMIWNFHCWVESWMTRPDLEPGYEGWQALDPTPQEKSEGTYCCGPVPVRAIKEGHLNVKYDAPFVFAEVNADVVNWIRQKDGSLRKSINHLVVGLKISTKSVGRDEREDITHTYKYPEGSEEEREAFVRANHLNKLATKEEAQEETGVAMRIRVGQNMTMGSDFDIFAYITNGTAESHECQLLLCARIVSYNGVLGPVCSTNDLLNLTLDPFSENSIPLHILYEKYGDYLTESNLIKVRGLLIEPAANSYVLAERDIYLENPEIKIRVLGEPKQNRKLIAEVSLKNPLPVPLLGCIFTVEGAGLTKDQKSVEVPDPVEAGEQAKVRVDLLPTEVGLHKLVVNFECDKLKAVKGYRNVIIGPA
[2]
  aggregation into a high molecular weight polymer (35S gel): upon addition of transglutaminase, httQ23 (90 amino acids), httQ41 (100 amino acids), and httQ67 (135 amino acids) all aggregate into a high molecular weight polymer within 30 minutes
  amount of aggregation compared to httQ23 (densitometry): 2-3 fold greater amount of aggregation of httQ41 and httQ67 compared to httQ23 at each concentration of transglutaminase
[3]
  aggregation into a high molecular weight polymer (35S gel): upon addition of transglutaminase, both httQ23 (310 amino acids) and httQ41 (330 amino acids) aggregate into a high molecular weight polymer within 30 minutes
[4]
  aggregation into a high molecular weight polymer (35S gel): upon addition of transglutaminase, httQ23 (90 amino acids), httQ41 (100 amino acids), and httQ67 (135 amino acids) all aggregate into a high molecular weight polymer within 30 minutes
[5]
  aggregation into a high molecular weight polymer (35S gel): upon addition of transglutaminase, both httQ23 (310 amino acids) and httQ41 (330 amino acids) aggregate into a high molecular weight polymer within 30 minutes
[6]
  aggregation into a high molecular weight polymer (35S gel): upon addition of transglutaminase, httQ23 (90 amino acids), httQ41 (100 amino acids), and httQ67 (135 amino acids) all aggregate into a high molecular weight polymer within 30 minutes
  amount of aggregation compared to httQ23 (densitometry): 2-3 fold greater amount of aggregation of httQ41 and httQ67 compared to httQ23 at each concentration of transglutaminase
